{"source": "patent US20180272346A1", "about": "“MODULAR ORGAN MICROPHYSIOLOGICAL SYSTEM WITH MICROBIOME” (Massachusetts Institute of Technology, priority 2017, published 2018)", "origin": "cited, not measured here", "key": {"[1]": {"tested_on": "7-way MPS platform (gut, liver and other MPSs)"}, "[2]": {"conditions": "oral, in vivo; read-out: maximum measured plasma concentration, Cmax"}, "[3]": {"tested_on": "immune-competent liver MPS (hepatocytes and Kupffer cells)"}, "[4]": {"tested_on": "endometrium MPS"}, "[5]": {"tested_on": "human hepatocytes and kupffer cells co-culture"}, "[6]": {"tested_on": "immune-competent gut MPS (Caco2, HT29-MTX, dendritic cells)"}, "[7]": {"tested_on": "immune-competent gut-liver interacted MPS", "conditions": "tolcapone added to gut MPS (\"oral\")"}}, "data": [{"molecule": "O=C(O)Cc1ccccc1Nc1c(Cl)cccc1Cl", "note": "[Diclofenac, diclofenac]", "values": [{"measurement": "absorption and distribution across MPS compartments", "setting": "[1]", "result": "absorbed across the gut epithelial barrier"}, {"measurement": "unbound intrinsic clearance (CL_int(u))", "setting": "[1]; diclofenac added to apical side of gut MPS, estimated", "result": 13.90, "unit": "µL/min"}, {"measurement": "fraction of clearance towards formation of the 4-OH-DCF metabolite", "setting": "[1]; estimated", "result": "approximately 19%"}, {"measurement": "Cmax", "setting": "[2]", "result": "2 to 6", "unit": "µM"}, {"measurement": "cell death", "setting": "[3]", "result": "minimal"}, {"measurement": "function and cellular death", "setting": "[4]", "result": "loss of function correlating with cellular death"}]}, {"molecule": "C[C@]12CCC(=O)C=C1CC[C@@H]1[C@@H]2[C@@H](O)C[C@@]2(C)[C@H]1CC[C@]2(O)C(=O)CO", "note": "[Hydrocortisone (cortisol), Hydrocortisone]", "values": [{"measurement": "differentiated function", "setting": "[5]; cocultured liver MPS", "result": "enhanced"}, {"measurement": "inflammatory response", "setting": "[5]; cocultured liver MPS", "result": "suppressed"}, {"measurement": "CYP450 activity", "setting": "[5]; cultures up to 21 days", "result": "sensitive to hydrocortisone levels"}]}, {"molecule": "Cc1ccc(C(=O)c2cc(O)c(O)c([N+](=O)[O-])c2)cc1", "note": "[Tolcapone]", "values": [{"measurement": "cell death", "setting": "[6]", "result": "severe cellular death"}, {"measurement": "epithelial function", "setting": "[6]", "result": "complete loss of epithelial function"}, {"measurement": "MPS-specific cell death markers", "setting": "[7]", "result": "suffered from MPS-specific cell death markers"}, {"measurement": "generic cell death marker", "setting": "[7]", "result": "insensitive"}, {"measurement": "gut and liver MPS function", "setting": "[7]", "result": "MPS-specific loss of function"}, {"measurement": "cell death", "setting": "[3]", "result": "caused cell death"}, {"measurement": "mitochondrial activity", "setting": "[3]", "result": "decreased"}, {"measurement": "function and cellular death", "setting": "[4]", "result": "loss of function correlating with cellular death"}]}, {"molecule": "Lipopolysaccharide [Lipopolysaccharide (LPS)]", "values": [{"measurement": "lowest LPS stimulus the co-cultures were responsive to", "setting": "[5]; hepatocyte-Kupffer co-culture", "result": 0.01, "unit": "µg/mL"}]}]}
